# US8207169B2, “Substituted [1,2,4]triazolo[4′,3′:1,6]pyrido[2,3-b]pyrazines of the formula D” (MSD K.K., priority 2008, dated 2012)
# Tests used:
# Akt2 kinase = target: T1, Akt2 kinase (Homo sapiens, UniProt P31751); assay: Akt kinase assay (HTRF, GSK-derived biotinylated peptide substrate); type: biochemical; conditions: activated Akt2 kinase
# T1 construct: a middle T tag was added to the 5′ end of the full length Akt2 using the PCR primer; biotin tag (from pS2neo vector); made in house; host or cells: Drosophila S2 cells
# Description: (§1) Activated Akt isoforms and pleckstrin homology domain deletion constructs were assayed utilizing a GSK-derived biotinylated peptide substrate. The extent of peptide phosphorylation was determined by Homogeneous Time Resolved Fluorescence (HTRF) using a lanthanide chelate(Lance)-coupled monoclonal antibody specific for the phosphopeptide in combination with a streptavidin-linked allophycocyanin (SA-APC) fluorophore which will bind to the biotin moiety on the peptide. When the Lance and APC are in proximity (i.e. bound to the same phosphopeptide molecule), a non-radiative energy transfer takes place from the Lance to the APC, followed by emission of light from APC at 665 nm.
# (§2) Materials Required for the Assay:
# (§3) A. Activated Akt isozyme or pleckstrin homology domain deleted construct
# (§4) B. Akt peptide substrate: GSK3α (S21) Peptide #3928 biotin-GGRARTSSFAEPG (SEQ. ID. NO.:15), Macromolecular Resources.
# (§5) C. Lance labeled anti-phospho GSK3α monoclonal antibody (Cell Signaling Technology, clone #27).
# (§6) D. SA-APC (Prozyme catalog no. MS lot #896067).
# (§7) E. Microfluor®B U Bottom Microtiter Plates (Dynex Technologies, Catalog no. 7205).
# (§8) F. Discovery® HTRF Microplate Analyzer, Packard Instrument Company.
# (§9) G. 100× Protease Inhibitor Cocktail (PIC): 1 mg/mL benzamidine, 0.5 mg/mL pepstatin, 0.5 mg/mL leupeptin, 0.5 mg/mL aprotinin.
# (§10) H. 10× Assay Buffer: 500 mM HEPES, pH 7.5, 1% PEG, […], 1 mM EGTA, 1% BSA, 20 mM ∂-Glycerol phosphate.
# (§11) I. Quench Buffer: 50 mM HEPES pH 7.3, 16.6 mM EDTA, 0.1% BSA, 0.1% Triton X-100, 0.17 nM Lance labeled monoclonal antibody clone #27, 0.0067 mg/mL SA-APC
# (§12) J. ATP/MgCl2 working solution: 1× Assay buffer, 1 mM DTT, 1×PIC, 125 mM KCl, 5% Glycerol, 25 mM MgCl2, 375 μM ATP
# (§13) K. Enzyme working solution: 1× Assay buffer, 1 mM DTT, 1×PIC, 5% Glycerol, active Akt. The final enzyme concentrations were selected so that the assay was in a linear response range.
# (§14) L. Peptide working solution: 1× Assay buffer, 1 mM DTT, 1×PIC, 5% Glycerol, 2 μM GSK3 biotinylated peptide #3928
# (§15) The reaction is assembled by adding […] of the ATP/MgCl2 working solution to the appropriate wells of a 96-well microtiter plate. Inhibitor or vehicle (1.0 μL) is added followed by 10 μL of peptide working solution. The reaction is started by adding 13 μl, of the enzyme working solution and mixing. The reaction is allowed to proceed for 50 min and then stopped by the addition of 60 μL, HTRF quench buffer. The stopped reactions were incubated at room temperature for at least 30 min and then read on the Discovery instrument.
# Akt1 kinase = target: T2, Akt1 kinase (Homo sapiens, UniProt P31749); assay: as above; type: biochemical; conditions: activated Akt1 kinase
# T2 construct: a middle T tag was added to the 5′ end of the full length Akt1 gene; biotin tag (from pS2neo vector); made in house; host or cells: Drosophila S2 cells
# Description: as §1, §2, §3, §4, §5, §6, §7, §8, §9, §10, §11, §12, §13, §14, §15
# T2 sequence (P31749 whole entry): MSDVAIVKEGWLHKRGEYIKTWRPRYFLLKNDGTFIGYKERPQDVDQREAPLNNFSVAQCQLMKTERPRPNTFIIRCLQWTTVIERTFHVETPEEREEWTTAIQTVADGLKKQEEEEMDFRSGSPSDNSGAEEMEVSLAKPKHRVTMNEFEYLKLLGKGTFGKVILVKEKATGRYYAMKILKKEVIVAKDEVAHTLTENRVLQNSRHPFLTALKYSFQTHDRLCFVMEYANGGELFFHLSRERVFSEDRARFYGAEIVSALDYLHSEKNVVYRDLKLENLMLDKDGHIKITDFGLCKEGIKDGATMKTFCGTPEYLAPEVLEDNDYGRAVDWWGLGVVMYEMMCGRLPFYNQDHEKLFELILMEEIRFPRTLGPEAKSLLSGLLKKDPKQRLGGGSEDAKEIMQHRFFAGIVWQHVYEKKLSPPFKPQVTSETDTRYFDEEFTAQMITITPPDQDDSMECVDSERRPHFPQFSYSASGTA
# T1 sequence (P31751 whole entry): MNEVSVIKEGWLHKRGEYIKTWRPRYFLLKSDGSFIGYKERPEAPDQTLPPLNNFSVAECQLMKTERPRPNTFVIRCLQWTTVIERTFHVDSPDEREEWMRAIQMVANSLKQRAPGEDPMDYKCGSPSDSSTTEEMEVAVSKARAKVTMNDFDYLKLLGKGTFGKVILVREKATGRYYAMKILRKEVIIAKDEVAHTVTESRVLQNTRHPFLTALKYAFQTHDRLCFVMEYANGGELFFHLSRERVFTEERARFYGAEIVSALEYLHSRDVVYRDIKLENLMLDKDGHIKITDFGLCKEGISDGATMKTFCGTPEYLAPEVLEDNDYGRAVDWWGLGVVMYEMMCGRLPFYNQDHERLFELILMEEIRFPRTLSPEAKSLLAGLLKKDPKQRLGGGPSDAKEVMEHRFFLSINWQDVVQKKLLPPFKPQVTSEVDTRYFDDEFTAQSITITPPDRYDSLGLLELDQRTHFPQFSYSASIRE
SMILES,IC50 (Akt2 kinase) [nM],IC50 (Akt1 kinase) [nM]
"C[C@]1(O)C[C@@](N)(c2ccc(-c3nc4ccc5nnc(-c6cccnc6)n5c4nc3-c3ccccc3)cc2)C1 [EXAMPLE 3-7, trans-3-amino-1-methyl-3-{4-[2-phenyl-9-(3-pyridinyl)[1,2,4]triazolo-[4′,3′:1,6]pyrido[2,3-b]pyrazin-3-yl]phenyl}cyclobutanol]",4,0.4
"N[C@]1(c2ccc(-c3nc4ccc5nnc(-c6ccc(O)cc6)n5c4nc3-c3ccccc3)cc2)C[C@](O)(C2CC2)C1 [EXAMPLE 3-14, 4-{3-[4-(trans-1-amino-3-cyclopropyl-3-hydroxycyclobutyl)phenyl]-2-phenyl[1,2,4]triazolo[4′,3′:1,6]pyrido[2,3-b]pyrazin-9-yl]phenol]",11,0.3
"NC1(c2ccc(-c3nc4ccc5nnc(CCC(F)(F)F)n5c4nc3-c3ccccc3)cc2)CC(O)(C2CC2)C1 (stereo not drawn) [EXAMPLE 3-20, trans-3-amino-1-cyclopropyl-3-{4-[2-phenyl-9-(3,3,3-trifluoropropyl)[1,2,4]triazolo[4′,3′:1,6]pyrido[2,3-b]pyrazin-3-yl]phenyl}cyclobutanol]",6.3,0.5

# Results, then the compound that gave them:
IC50 (Akt2 kinase) [nM],IC50 (Akt1 kinase) [nM],SMILES
44.4,6,"NC1(c2ccc(-c3nc4ccn5c(-c6ncccn6)nnc5c4cc3-c3ccccc3)cc2)CC(F)(F)C1 [EXAMPLE 2-10, 3,3-difluoro-1-{4-[9-phenyl-3-(2-pyrimidinyl)[1,2,4]triazolo[3,4-f]-1,6-naphthyridin-8-yl]phenyl}cyclobutanamine]"
4,0.3,"N[C@]1(c2ccc(-c3nc4ccn5c(-c6ncccn6)nnc5c4cc3-c3ccccc3)cc2)C[C@](O)(C2CC2)C1 [EXAMPLE 2-14, trans-3-amino-1-cyclopropyl-3-{-4-[9-phenyl-3-(2-pyrimidinyl)-[1,2,4]triazolo[3,4-f]-1,6-naphthyridin-8-yl]phenyl}cyclobutanol]"
84.3,4.7,"Cc1nc(-c2nnc3c4cc(-c5ccccc5)c(-c5ccc(C6(N)CC(F)(F)C6)cc5)nc4ccn23)n[nH]1 [EXAMPLE 5-16, 3,3-difluoro-1-{4-[3-(5-methyl-1H-1,2,4-triazol-3-yl)-9-phenyl[1,2,4]triazolo[3,4-f]-1,6-naphthyridin-8-yl]phenyl}cyclobutanamine]"
